In assay [1] the test system is Mus musculus. As to the kind of experiment: Inhibition of collagen antibody-induced arthritis in p38beta T106M mutant expressing C57BL/6 mouse at 3 mg/kg, po administered daily once 24 hrs after LPS challenge. The class given is functional, organism-based. More on the design: dose 3 mg/kg.
Assay [2] concerns Mus musculus. As to the kind of experiment: Inhibition of collagen antibody-induced arthritis in p38alpha T106M mutant expressing C57BL/6 mouse at 3 mg/kg, po administered daily once 24 hrs after LPS challenge. The class given is functional, organism-based. Set-up: dose 3 mg/kg.
Assay [3] deals with Mitogen-activated protein kinase 14 (Homo sapiens, UniProt Q16539). As to the kind of experiment: Inhibition of wild type p38alpha.
Assay [4] has as its target Mitogen-activated protein kinase 14 (Homo sapiens, UniProt Q16539, T106M). As to the kind of experiment: Inhibition of p38alpha T106M mutant.
Assay [5] has as its target Mitogen-activated protein kinase 11 (Homo sapiens, UniProt Q15759). As to the kind of experiment: Inhibition of wild type p38beta.
A short description of assay [6]: Inhibition of LPS-stimulated TNFalpha production in p38alpha expressing mouse peritoneal exudates cells by ELISA. The class given is functional.
Assay [7] in a line: Inhibition of LPS-stimulated TNFalpha production in p38alpha T106M mutant expressing mouse peritoneal exudates cells by ELISA. The class given is functional.
Assay [8] can be described thus: Inhibition of LPS-stimulated TNFalpha production in p38beta T106M mutant expressing mouse peritoneal exudates cells by ELISA. The class given is functional.
Assay [9] in a line: Inhibition of LPS-stimulated TNFalpha production in p38beta deficient mouse peritoneal exudates cells by ELISA. The class given is functional.
The subject of assay [10] is Mus musculus. As to the kind of experiment: Inhibition of collagen antibody-induced arthritis in wild type C57BL/6 mouse at 3 mg/kg, po administered daily once 24 hrs after LPS challenge. More on the design: dose 3 mg/kg. The class given is functional, organism-based.
Assay [11] addresses Mitogen-activated protein kinase 11 (Homo sapiens, UniProt Q15759, T106M). As to the kind of experiment: Inhibition of p38beta T106M mutant.
For assay [12], the system named is Mus musculus. As to the kind of experiment: Inhibition of LPS-stimulated TNFalpha production in p38alpha T106M mutant expressing C57BL/6 mouse plasma at 3 mg/kg, po after 90 mins by ELISA. The class given is functional, organism-based. More on the design: dose 3 mg/kg.
Assay [13] concerns Mus musculus. As to the kind of experiment: Inhibition of LPS-stimulated TNFalpha production in p38beta T106M mutant expressing C57BL/6 mouse plasma at 3 mg/kg, po after 90 mins by ELISA. The class given is functional, organism-based. More on the design: dose 3 mg/kg.
The test system of assay [14] is Mus musculus. As to the kind of experiment: Inhibition of LPS-stimulated TNFalpha production in wild type C57BL/6 mouse plasma at 3 mg/kg, po after 90 mins by ELISA. The class given is functional, organism-based. Set-up: dose 3 mg/kg.
For assay [15], the system named is Mus musculus. As to the kind of experiment: Inhibition of LPS-stimulated TNFalpha production in p38beta deficient C57BL/6 mouse plasma at 3 mg/kg, po after 90 mins by ELISA. The class given is functional, organism-based. Set-up: dose 3 mg/kg.

The source made the active and inactive calls. The rule behind the calls is not given here.

Chain of Mitogen-activated protein kinase 14 (Homo sapiens, UniProt Q16539) (Q16539 whole entry): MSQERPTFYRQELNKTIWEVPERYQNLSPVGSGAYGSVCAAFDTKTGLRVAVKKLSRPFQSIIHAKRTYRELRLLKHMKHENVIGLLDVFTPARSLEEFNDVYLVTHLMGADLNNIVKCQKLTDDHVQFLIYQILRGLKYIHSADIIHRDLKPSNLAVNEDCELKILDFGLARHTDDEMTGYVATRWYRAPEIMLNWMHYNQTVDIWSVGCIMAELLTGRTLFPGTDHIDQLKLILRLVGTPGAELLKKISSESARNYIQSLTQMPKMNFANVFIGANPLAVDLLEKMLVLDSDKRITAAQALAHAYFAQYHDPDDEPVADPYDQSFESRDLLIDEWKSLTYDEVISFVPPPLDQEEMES
Chain of Mitogen-activated protein kinase 14 (Homo sapiens, UniProt Q16539, T106M) (Q16539 2-360 T106M limits assumed): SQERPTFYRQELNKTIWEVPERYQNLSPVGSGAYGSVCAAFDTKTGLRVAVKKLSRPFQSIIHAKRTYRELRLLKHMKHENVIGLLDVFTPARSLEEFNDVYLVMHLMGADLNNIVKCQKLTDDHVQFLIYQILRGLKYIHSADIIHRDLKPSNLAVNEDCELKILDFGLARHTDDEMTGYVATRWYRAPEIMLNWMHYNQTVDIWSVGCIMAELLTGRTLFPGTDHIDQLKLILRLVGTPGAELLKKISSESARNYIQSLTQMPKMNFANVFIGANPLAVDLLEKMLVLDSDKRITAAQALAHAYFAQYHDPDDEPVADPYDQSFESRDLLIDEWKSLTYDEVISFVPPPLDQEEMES
Chain of Mitogen-activated protein kinase 11 (Homo sapiens, UniProt Q15759, T106M) (Q15759 whole entry T106M): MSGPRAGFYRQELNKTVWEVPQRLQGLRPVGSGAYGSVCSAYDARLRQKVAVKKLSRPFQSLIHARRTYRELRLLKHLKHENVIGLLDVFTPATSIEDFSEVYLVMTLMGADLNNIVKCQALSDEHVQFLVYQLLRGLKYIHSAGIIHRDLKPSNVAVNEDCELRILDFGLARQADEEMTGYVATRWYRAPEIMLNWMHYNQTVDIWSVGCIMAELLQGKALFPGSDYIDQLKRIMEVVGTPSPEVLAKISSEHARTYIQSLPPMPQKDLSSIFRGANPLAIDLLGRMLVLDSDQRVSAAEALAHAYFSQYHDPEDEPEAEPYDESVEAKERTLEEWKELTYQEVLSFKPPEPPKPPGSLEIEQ
Chain of Mitogen-activated protein kinase 11 (Homo sapiens, UniProt Q15759) (Q15759 whole entry): as the sequence (Q15759 whole entry T106M) above, with M106T counted along it

On to `CC(C)(C)N1CCC(c2cc(-c3ccc(F)cc3F)c3ccc(=O)n(-c4c(Cl)cccc4Cl)c3c2)CC1`, for which the outcome with Mus musculus [1] and with Mus musculus [10] was Active. For the same molecule, in the assay with Mus musculus [2], the result was inactive. Moreover, the IC50 was 0.08 nM in assay [3]; 28 nM in [4]; 0.25 nM in [5]; 3.5 nM in assay [6]; > 250 nM in assay [7]; 8.3 nM in assay [8]. For the same molecule, the IC50 in [9] amounted to 6.8 nM; in assay [11] it was 260 nM.
`C[C@H](Nc1cc(-c2c(-c3cccc(C(F)(F)F)c3)nc(C3CCNCC3)n2C)ccn1)c1ccccc1`: the outcome in the assay on Mus musculus [12] was inactive. Further, the outcome in the assay on Mus musculus [13], in the assay on Mus musculus [14] and with Mus musculus [15] was Active.

The values are drawn from ChEMBL document CHEMBL1156514, “Chemical genetics define the roles of p38alpha and p38beta in acute and chronic inflammation” (J Biol Chem, 2007).
